# Test results from patent US8609715B2, “Heteroarylcarboxylic acid ester derivative” (Ajinomoto Co., Inc., priority 2009, dated 2013).
# Structures can show the parent of a compound that is named as a salt.
# Target: recombinant human enteropeptidase (Homo sapiens (Human), UniProt P98073)
# Assay: Measurement of enteropeptidase inhibitory activity
# Assay type: biochemical
# Settings: Dixon plot
# Protocol: Measurement of Enteropeptidase Inhibitory Activity
# Using a 96 well plate (#3915, Costar), a test compound (25 μL), 400 mM Tris-HCl buffer (pH 8.0, 25 μL) and 0.5 mg/mL fluorescence enzyme substrate (Gly-Asp-Asp-Asp-Asp-Lys-β-Naphtylamide, 25 μL) were mixed, and recombinant human enteropeptidase (R&D Systems, Inc., 25 μL) was added. Using a fluorescence plate reader fmax (Molecular Devices, Inc.), the reaction rate was measured from the time-course changes at excitation wavelength 320 nm and fluorescence wavelength 405 nm. The Ki value was calculated from the concentration of the test compound, reciprocal of reaction rate, and Km value of the enzyme substrate, and by using Dixon plot.
# Chain of recombinant human enteropeptidase (P98073 whole entry): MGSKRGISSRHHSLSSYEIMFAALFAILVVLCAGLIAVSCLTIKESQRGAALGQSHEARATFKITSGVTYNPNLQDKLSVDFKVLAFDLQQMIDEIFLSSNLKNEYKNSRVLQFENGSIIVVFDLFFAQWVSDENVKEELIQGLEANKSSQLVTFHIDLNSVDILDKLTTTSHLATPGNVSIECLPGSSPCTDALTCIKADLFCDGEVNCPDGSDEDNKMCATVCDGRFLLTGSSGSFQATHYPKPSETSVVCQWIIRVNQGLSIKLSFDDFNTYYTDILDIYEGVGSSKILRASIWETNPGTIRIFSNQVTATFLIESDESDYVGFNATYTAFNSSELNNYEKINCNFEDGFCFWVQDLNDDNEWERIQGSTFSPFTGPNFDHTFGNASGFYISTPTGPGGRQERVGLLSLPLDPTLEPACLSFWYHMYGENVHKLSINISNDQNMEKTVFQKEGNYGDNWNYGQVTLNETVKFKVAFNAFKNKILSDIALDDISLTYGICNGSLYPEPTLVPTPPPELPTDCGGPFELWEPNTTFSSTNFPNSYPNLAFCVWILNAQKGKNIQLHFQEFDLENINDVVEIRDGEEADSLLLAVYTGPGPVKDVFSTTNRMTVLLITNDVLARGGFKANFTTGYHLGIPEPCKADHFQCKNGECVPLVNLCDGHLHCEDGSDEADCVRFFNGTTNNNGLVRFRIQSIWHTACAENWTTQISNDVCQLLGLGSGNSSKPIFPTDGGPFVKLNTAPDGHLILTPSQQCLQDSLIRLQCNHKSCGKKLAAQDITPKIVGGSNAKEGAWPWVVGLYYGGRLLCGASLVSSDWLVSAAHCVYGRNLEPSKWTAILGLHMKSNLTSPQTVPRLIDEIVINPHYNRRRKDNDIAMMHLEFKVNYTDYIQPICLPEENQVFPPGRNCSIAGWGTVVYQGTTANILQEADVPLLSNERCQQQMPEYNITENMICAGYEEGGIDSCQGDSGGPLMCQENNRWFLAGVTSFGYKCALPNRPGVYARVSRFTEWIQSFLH
row,SMILES,Ki [nM]
1,CC(Cc1cc(C(=O)Oc2ccc(C(=N)N)cc2F)co1)C(=O)N[C@@H](CC(=O)O)C(=O)O (stereo partly shown) [Compound A-66],0.32
2,"CC(Cc1coc(C(=O)Oc2ccc(C(=N)N)cc2)c1)C(=O)N[C@@H](CC(=O)O)C(=O)O (stereo partly drawn) [Compound A-67, N-[3-[2-(4-amidinophenoxycarbonyl)-furan-4-yl]-2-methylpropanoyl]-L-aspartic acid trifluoroacetic acid salt]",0.52
3,N=C(N)c1ccc(OC(=O)c2ccc(-c3ccc(C(=O)NCC(=O)O)cc3)o2)cc1 [Compound A-69],4.7
4,N=C(N)c1ccc(OC(=O)c2ccc(-c3ccc(C(=O)NCP(=O)(O)O)cc3)o2)cc1 [Compound A-70],2.7
5,"N=C(N)c1ccc(OC(=O)c2ccc(-c3cccc(C(=O)N[C@@H](CC(=O)O)C(=O)O)c3)o2)cc1 [Compound A-71, N-{3-[5-(4-amidinophenoxycarbonyl)-furan-2-yl]benzoyl}-L-aspartic acid trifluoroacetic acid salt]",1.6
6,"CC(Cc1ccc(C(=O)Oc2ccc(C(=N)N)cc2)o1)C(=O)NN(CC(=O)O)CC(=O)O (stereo not shown) [Compound A-74, (N′-carboxymethyl-{3-[5-(4-amidinophenoxycarbonyl)furan-2-yl]-2-methylpropane}hydrazido)-acetic acid trifluoroacetic acid salt]",2.6
7,C/C(=C\c1ccc(C(=O)Oc2ccc(C(=N)N)cc2)s1)C(=O)NCC(=O)O [Compound B-2],9.29
8,C/C(=C\c1ccc(C(=O)Oc2ccc(C(=N)N)cc2)s1)C(=O)N[C@@H](CO)C(=O)O [Compound B-3],5.72
9,"CC(Cc1ccc(C(=O)Oc2ccc(C(=N)N)cc2[N+](=O)[O-])s1)C(=O)N(CCCO)CC(=O)O (stereo not shown) [Compound B-11, N-{3-[5-(4-amidino-2-nitrophenoxycarbonyl)thiophen-2-yl]-2-methylpropanoyl}-N-(3-hydroxypropyl)glycine hydrochloride]",1.41
10,CC(Cc1ccc(C(=O)Oc2ccc(C(=N)N)cc2)s1)C(=O)NCC(=O)O (stereo not shown) [Compound B-12],2.21
11,"CC(Cc1ccc(C(=O)Oc2ccc(C(=N)N)cc2Br)s1)C(=O)O (stereo not shown) [Compound B-16, 3-[5-(4-amidino-2-bromophenoxycarbonyl)thiophen-2-yl]-2-methylpropionic acid trifluoroacetic acid salt]",0.29
12,CC(Cc1ccc(C(=O)Oc2ccc(C(=N)N)cc2Cl)s1)C(=O)O (stereo not shown) [Compound B-17],0.42
13,CC(Cc1ccc(C(=O)Oc2ccc(C(=N)N)cc2F)s1)C(=O)O (stereo not shown) [Compound B-19],0.42
14,CC(Cc1ccc(C(=O)Oc2ccc(C(=N)N)cc2F)s1)C(=O)N[C@@H](CC(=O)O)C(=O)O (stereo partly shown) [Compound B-20],0.28
15,CC(Cc1ccc(C(=O)Oc2ccc(C(=N)N)cc2F)s1)C(=O)N[C@@H](CCC(=O)O)C(=O)O (stereo partly shown) [Compound B-21],0.56
16,CC(Cc1ccc(C(=O)Oc2ccc(C(=N)N)cc2F)s1)C(=O)N[C@H](CC(=O)O)C(=O)O (stereo partly shown) [Compound B-22],0.5
17,"C[C@H](Cc1ccc(C(=O)Oc2ccc(C(=N)N)cc2F)s1)C(=O)N[C@@H](CC(=O)O)C(=O)O [Compound B-25, N-{3-[5-(4-amidino-2-fluorophenoxycarbonyl)thiophen-2-yl]-2R-methylpropionyl}-L-aspartic acid trifluoroacetic acid salt]",0.79
18,CC(C)C[C@@H](Cc1ccc(C(=O)Oc2ccc(C(=N)N)cc2F)s1)C(=O)N[C@@H](CC(=O)O)C(=O)O [Compound B-27],0.95
19,CCC[C@H](Cc1ccc(C(=O)Oc2ccc(C(=N)N)cc2F)s1)C(=O)N[C@@H](CC(=O)O)C(=O)O [Compound B-28],1.1
20,CCC[C@@H](Cc1ccc(C(=O)Oc2ccc(C(=N)N)cc2F)s1)C(=O)N[C@@H](CC(=O)O)C(=O)O [Compound B-29],0.58
21,"N=C(N)c1ccc(OC(=O)c2ccc(CCC(=O)N[C@@H](CC(=O)O)C(=O)O)s2)c(F)c1 [Compound B-32, N-{3-[5-(4-amidino-2-fluorophenoxycarbonyl)thiophen-2-yl]propanoyl}-L-aspartic acid trifluoroacetic acid salt]",0.31
22,CC(Cc1ccc(C(=O)Oc2ccc(C(=N)N)cc2F)s1)C(=O)N1CCCC(C(=O)O)C1 (stereo not shown) [Compound B-34],2.2
23,"C=CCN(CC(=O)O)C(=O)CCc1ccc(C(=O)Oc2ccc(C(=N)N)cc2F)s1 [Compound B-38, N-{3-[5-(4-amidino-2-fluorophenoxycarbonyl)thiophen-2-yl]propionyl}-N-allylglycine trifluoroacetic acid salt]",0.75
24,"CC(Cc1ccc(C(=O)Oc2ccc(C(=N)N)cc2)s1)C(=O)N[C@@H](CS(=O)(=O)O)C(=O)O (stereo partly drawn) [Compound B-39, N-{3-[5-(4-amidinophenoxycarbonyl)-thiophen-2-yl]-2-methylpropanoyl}-L-cysteic acid trifluoroacetic acid salt]",0.95
25,"CC(Cc1ccc(C(=O)Oc2ccc(C(=N)N)cc2)s1)C(=O)NCP(=O)(O)O (stereo not shown) [Compound B-40, N-{3-[5-(4-amidinophenoxycarbonyl)-thiophen-2-yl]-2-methylpropanoyl}aminomethylphosphonic acid trifluoroacetic acid salt]",2
26,CC(Cc1ccc(C(=O)Oc2ccc(C(=N)N)cc2F)s1)C(=O)NCP(=O)(O)O (stereo not shown) [Compound B-42],0.37
27,CC(Cc1ccc(C(=O)Oc2ccc(C(=N)N)cc2Cl)s1)C(=O)N[C@@H](CS(=O)(=O)O)C(=O)O (stereo partly shown) [Compound B-44],0.21
28,CC(CCC(=O)O)Cc1ccc(C(=O)Oc2ccc(C(=N)N)cc2F)s1 (stereo not shown) [Compound B-48],0.88
29,CC(CCC(=O)N[C@@H](CC(=O)O)C(=O)O)Cc1ccc(C(=O)Oc2ccc(C(=N)N)cc2F)s1 (stereo partly shown) [Compound B-49],0.41

# More lines, in order of falling Ki, values ahead:
row,Ki [nM],SMILES
1,2.8,CCCC(Cc1ccc(C(=O)Oc2ccc(C(=N)N)cc2)s1)C(=O)N[C@@H](CC(=O)O)C(=O)O (stereo partly shown) [Compound B-33]
2,2.5,CC(Cc1cc(C(=O)Oc2ccc(C(=N)N)cc2)co1)C(=O)NCP(=O)(O)O (stereo not shown) [Compound A-64]
3,2.5,CC(CCC(=O)O)Cc1ccc(C(=O)Oc2ccc(C(=N)N)cc2)s1 (stereo not shown) [Compound B-47]
4,2.2,"N=C(N)c1ccc(OC(=O)c2ccc(-c3ccc(C(=O)N[C@@H](CC(=O)O)C(=O)O)cc3)o2)cc1 [Compound A-68, N-{4-[5-(4-amidinophenoxycarbonyl)-furan-2-yl]benzoyl}-L-aspartic acid trifluoroacetic acid salt]"
5,2.2,"CC(C)C[C@H](Cc1ccc(C(=O)Oc2ccc(C(=N)N)cc2F)s1)C(=O)N[C@@H](CC(=O)O)C(=O)O [Compound B-26, N-{3-[5-(4-amidino-2-fluorophenoxycarbonyl)thiophen-2-yl]-2R-isobutylpropionyl}-L-aspartic acid trifluoroacetic acid salt]"
6,2.15,"C/C(=C\c1ccc(C(=O)Oc2ccc(C(=N)N)cc2)s1)C(=O)N(CCCO)CCS(=O)(=O)O [Compound B-7, N-{(2E)-3-[5-(4-amidinophenoxycarbonyl)thiophen-2-yl]-2-methylpropenoyl}-N-hydroxypropyltaurine trifluoroacetic acid salt]"
7,2.1,"CC(Cc1cc(C(=O)Oc2ccc(C(=N)N)cc2)co1)C(=O)N[C@@H](CC(=O)O)C(=O)O (stereo partly drawn) [Compound A-62, N-{3-[4-(4-amidinophenoxycarbonyl)-furan-2-yl]-2-methylpropanoyl}-L-aspartic acid trifluoroacetic acid salt]"
8,1.44,"CC(Cc1ccc(C(=O)Oc2ccc(C(=N)N)cc2)s1)C(=O)O (stereo not shown) [Compound B-6, 3-[5-(4-amidinophenoxycarbonyl)-thiophen-2-yl]-2-methylpropanoic acid trifluoroacetic acid salt]"
9,1,CC(Cc1cc(C(=O)Oc2ccc(C(=N)N)cc2)co1)C(=O)N[C@@H](CS(=O)(=O)O)C(=O)O (stereo partly shown) [Compound A-65]
10,0.88,"CC(Cc1ccc(C(=O)Oc2ccc(C(=N)N)cc2)o1)C(=O)SC(CC(=O)O)C(=O)O (stereo not drawn) [Compound A-73, S-{3-[5-(4-amidinophenoxycarbonyl)-furan-2-yl]-2-methylpropionyl}thiomalic acid trifluoroacetic acid salt]"
11,0.84,C/C(=C\c1ccc(C(=O)Oc2ccc(C(=N)N)cc2[N+](=O)[O-])s1)C(=O)O [Compound B-8]
12,0.53,"CC(Cc1cc(C(=O)Oc2ccc(C(=N)N)cc2F)co1)C(=O)O (stereo not shown) [Compound A-63, 3-[4-(4-amidino-2-fluorophenoxycarbonyl)furan-2-yl]-2-methylpropanoic acid trifluoroacetic acid salt]"
13,0.52,CC(Cc1ccc(C(=O)Oc2ccc(C(=N)N)c(F)c2)s1)C(=O)N[C@@H](CC(=O)O)C(=O)O (stereo partly shown) [Compound B-30]
14,0.51,N=C(N)c1ccc(OC(=O)c2ccc(CCC(=O)N[C@H](CC(=O)O)C(=O)O)s2)c(F)c1 [Compound B-36]
15,0.5,N=C(N)c1ccc(OC(=O)c2ccc(CCC(=O)N(CCC(=O)O)CC(=O)O)s2)c(F)c1 [Compound B-37]
16,0.49,CC(Cc1ccc(C(=O)Oc2ccc(C(=N)N)c(F)c2)s1)C(=O)O (stereo not shown) [Compound B-24]
17,0.42,"N=C(N)c1ccc(OC(=O)c2ccc(CC(CCC(=O)O)C(=O)N[C@@H](CC(=O)O)C(=O)O)o2)cc1 (stereo partly drawn) [Compound A-61, N-{3-[5-(4-amidinophenoxycarbonyl)-furan-2-yl]-2-(carboxyethyl)propanoyl}-L-aspartic acid trifluoroacetic acid salt]"
18,0.42,CC(Cc1ccc(C(=O)Oc2ccc(C(=N)N)cc2Cl)s1)C(=O)NCP(=O)(O)O (stereo not shown) [Compound B-43]
19,0.4,CC(Cc1ccc(C(=O)Oc2ccc(C(=N)N)cc2F)s1)C(=O)N[C@@H](CO)C(=O)O (stereo partly shown) [Compound B-35]
20,0.27,CC(Cc1ccc(C(=O)Oc2ccc(C(=N)N)cc2F)s1)C(=O)N[C@@H](CS(=O)(=O)O)C(=O)O (stereo partly shown) [Compound B-41]
